Results from ChEMBL document CHEMBL1201862, “PubChem BioAssay data set” (2004).
Values belong to the compound of their own block, whether it stands above or below them. Activity calls are given as the source filed them.

Tests used:
Hexokinase HKDC1 = biological target: T1, Hexokinase HKDC1 (Homo sapiens, UniProt Q2TB90); test: SAR analysis of small molecule inhibitors of hexokinase domain containing I (HKDC1). [Related pubchem assays (depositor defined):AID493160, AID493190]; format: functional
T1 sequence (Q2TB90 whole entry): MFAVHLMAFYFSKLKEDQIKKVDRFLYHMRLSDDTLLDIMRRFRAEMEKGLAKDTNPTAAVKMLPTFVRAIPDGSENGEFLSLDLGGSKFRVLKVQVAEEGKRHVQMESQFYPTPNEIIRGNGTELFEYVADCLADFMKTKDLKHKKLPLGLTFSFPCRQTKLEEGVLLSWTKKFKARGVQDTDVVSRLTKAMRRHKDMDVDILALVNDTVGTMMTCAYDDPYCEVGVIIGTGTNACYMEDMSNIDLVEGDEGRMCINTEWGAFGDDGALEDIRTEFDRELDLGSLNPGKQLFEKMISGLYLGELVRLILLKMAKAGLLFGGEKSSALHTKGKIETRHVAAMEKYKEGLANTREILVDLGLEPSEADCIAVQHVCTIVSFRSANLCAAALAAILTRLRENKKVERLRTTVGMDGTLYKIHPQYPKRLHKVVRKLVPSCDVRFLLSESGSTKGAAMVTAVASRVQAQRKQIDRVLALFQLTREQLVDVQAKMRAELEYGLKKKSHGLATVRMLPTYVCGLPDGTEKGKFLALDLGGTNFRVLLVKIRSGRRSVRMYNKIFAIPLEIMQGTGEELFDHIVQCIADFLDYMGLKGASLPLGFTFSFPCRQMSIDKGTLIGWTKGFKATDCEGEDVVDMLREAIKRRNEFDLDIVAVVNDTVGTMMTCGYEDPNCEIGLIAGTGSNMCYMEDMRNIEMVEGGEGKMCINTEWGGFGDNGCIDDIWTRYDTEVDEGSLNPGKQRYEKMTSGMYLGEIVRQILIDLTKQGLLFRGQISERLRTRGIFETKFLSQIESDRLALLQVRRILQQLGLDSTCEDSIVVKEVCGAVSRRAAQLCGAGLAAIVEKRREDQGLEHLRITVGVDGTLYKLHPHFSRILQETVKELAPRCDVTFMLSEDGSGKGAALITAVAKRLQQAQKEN

Hexokinase-1 = biological target: T2, Hexokinase-1 (Homo sapiens, UniProt P19367); test: SAR analysis of small molecule inhibitors of hexokinase domain containing I (HKDC1) in the hexokinase 1 selectivity assay. [Related pubchem assays (depositor defined):AID493160, AID493190]; format: functional
T2 sequence (P19367 whole entry): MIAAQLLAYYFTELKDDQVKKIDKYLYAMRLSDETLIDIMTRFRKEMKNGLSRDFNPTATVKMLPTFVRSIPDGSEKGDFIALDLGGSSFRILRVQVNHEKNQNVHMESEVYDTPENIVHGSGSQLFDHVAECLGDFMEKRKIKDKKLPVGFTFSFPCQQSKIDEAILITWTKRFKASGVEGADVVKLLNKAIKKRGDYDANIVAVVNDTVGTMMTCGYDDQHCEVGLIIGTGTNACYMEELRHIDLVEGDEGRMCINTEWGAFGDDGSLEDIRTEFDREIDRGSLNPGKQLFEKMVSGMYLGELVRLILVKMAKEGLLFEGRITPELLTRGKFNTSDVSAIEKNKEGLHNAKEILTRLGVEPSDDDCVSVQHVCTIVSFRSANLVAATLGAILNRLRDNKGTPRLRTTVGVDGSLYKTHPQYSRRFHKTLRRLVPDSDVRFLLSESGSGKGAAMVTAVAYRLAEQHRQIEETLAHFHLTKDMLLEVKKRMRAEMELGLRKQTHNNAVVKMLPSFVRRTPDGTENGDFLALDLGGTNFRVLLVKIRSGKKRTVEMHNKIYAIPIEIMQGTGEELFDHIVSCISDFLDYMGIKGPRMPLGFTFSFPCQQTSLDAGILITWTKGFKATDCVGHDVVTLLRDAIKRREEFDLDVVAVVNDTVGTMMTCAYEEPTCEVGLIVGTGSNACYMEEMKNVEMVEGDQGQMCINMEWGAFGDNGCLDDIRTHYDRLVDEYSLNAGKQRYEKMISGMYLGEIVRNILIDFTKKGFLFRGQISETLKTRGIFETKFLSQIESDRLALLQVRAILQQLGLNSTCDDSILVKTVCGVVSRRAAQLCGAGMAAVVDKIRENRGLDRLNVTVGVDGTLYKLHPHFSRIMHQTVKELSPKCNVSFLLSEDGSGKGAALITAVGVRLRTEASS

HEK293 [1] = test: optical interference in Abeta FP readout, dose response, artefact control for IDE activator project, biochemical, fluorescence polarization (AID 588442); format: functional, cell-based; conditions: Homo sapiens
Insulin-degrading enzyme [2] = biological target: T3, Insulin-degrading enzyme (Homo sapiens, UniProt P14735); test: recombinant IDE activation, cell-free – biochemical, fluorescence polarization, counter-screen for IDE activator project, dose response (AID 588681)
T3 sequence (P14735 whole entry): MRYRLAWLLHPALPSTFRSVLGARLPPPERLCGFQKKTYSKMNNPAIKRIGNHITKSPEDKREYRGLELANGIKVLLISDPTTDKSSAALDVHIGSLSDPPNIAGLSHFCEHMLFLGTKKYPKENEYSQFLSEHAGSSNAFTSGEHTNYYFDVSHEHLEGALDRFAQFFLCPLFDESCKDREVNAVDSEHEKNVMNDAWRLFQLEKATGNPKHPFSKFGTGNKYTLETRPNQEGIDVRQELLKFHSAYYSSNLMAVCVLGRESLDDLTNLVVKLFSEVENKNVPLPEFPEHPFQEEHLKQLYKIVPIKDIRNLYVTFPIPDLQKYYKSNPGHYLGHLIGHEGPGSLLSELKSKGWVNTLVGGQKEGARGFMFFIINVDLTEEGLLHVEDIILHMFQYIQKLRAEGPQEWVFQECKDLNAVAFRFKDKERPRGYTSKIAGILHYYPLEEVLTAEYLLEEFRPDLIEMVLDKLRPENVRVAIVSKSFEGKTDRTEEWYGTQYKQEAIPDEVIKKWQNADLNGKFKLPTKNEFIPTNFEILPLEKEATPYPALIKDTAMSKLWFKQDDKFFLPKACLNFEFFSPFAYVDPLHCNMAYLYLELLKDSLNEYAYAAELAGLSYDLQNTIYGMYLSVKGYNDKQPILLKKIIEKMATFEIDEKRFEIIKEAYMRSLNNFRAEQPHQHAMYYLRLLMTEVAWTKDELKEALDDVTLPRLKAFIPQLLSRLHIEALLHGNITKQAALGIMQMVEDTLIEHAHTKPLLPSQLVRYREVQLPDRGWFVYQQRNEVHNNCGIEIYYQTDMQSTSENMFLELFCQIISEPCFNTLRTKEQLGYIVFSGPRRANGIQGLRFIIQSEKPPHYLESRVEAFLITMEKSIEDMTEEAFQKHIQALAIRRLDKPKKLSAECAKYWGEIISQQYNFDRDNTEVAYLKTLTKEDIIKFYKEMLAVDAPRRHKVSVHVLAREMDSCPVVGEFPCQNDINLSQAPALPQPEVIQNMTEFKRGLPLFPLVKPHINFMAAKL

HEK293 [3] = test: membrane integrity loss in HEK cells – cell-based, fluorescence, cytotoxicity control for IDE activator project, dose response (AID 588440); format: functional; conditions: Homo sapiens;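 also: cytotoxicity by LDH release measuring loss of membrane integrity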
Insulin-degrading enzyme [4] = biological target: T3, Insulin-degrading enzyme; test: cellular IDE activation of Abeta substrate cleavage – fluorescence polarization, HEK cells, dose response (AID 588439); format: functional, cell-based
[5] = fluconazole-exposed Candida albicans growth modulators – fluorescence, retest, confirmation (AID 2467); format: functional, cell-based
[6] = biological target: Serine/threonine-protein phosphatase (Candida dubliniensis (strain CD36 / CBS 7987 / NCPF 3949 / NRRLY-17841) (Yeast), UniProt B9W6M3); test: blockers of CaCl2-induced CDRE-lacZ signaling – S. cerevisiae, luminescence, secondary, dose response (AID 2388); format: functional, cell-based;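 also: yeast reporter cells carrying a calcineurin-responsive lacZ construct stimulated with calcium chloride; luminescent beta-galactosidase reporter signal in whole cells rather than isolated phosphatase activity; potency for inhibition where a drop in reporter signal means calcineurin blockade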
[7] = NIH-3T3 fibroblast cytotoxicity, dose response, cytotoxicity control, cell-based, fluorescence, Alamar Blue, secondary assay (AID 2327); format: functional;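 also: NIH-3T3 mouse fibroblasts cultured with fluconazole at 8 µg/mL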
[8] = biological target: ATP-dependent molecular chaperone HSP82 (Candida albicans (strain WO-1) (Yeast), UniProt C4YTQ8); test: steroid-induced GRE reporter decrease in yeast – S. cerevisiae, luminescence, Hsp90 inhibitor project, dose response (AID 2400); format: functional, cell-based;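 also: beta-galactosidase luminescence from glucocorticoid response element reporter as proxy for Hsp90 function; inhibitor potency where signal loss means Hsp90 inhibition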
Sequence of ATP-dependent molecular chaperone HSP82 (C4YTQ8 whole entry): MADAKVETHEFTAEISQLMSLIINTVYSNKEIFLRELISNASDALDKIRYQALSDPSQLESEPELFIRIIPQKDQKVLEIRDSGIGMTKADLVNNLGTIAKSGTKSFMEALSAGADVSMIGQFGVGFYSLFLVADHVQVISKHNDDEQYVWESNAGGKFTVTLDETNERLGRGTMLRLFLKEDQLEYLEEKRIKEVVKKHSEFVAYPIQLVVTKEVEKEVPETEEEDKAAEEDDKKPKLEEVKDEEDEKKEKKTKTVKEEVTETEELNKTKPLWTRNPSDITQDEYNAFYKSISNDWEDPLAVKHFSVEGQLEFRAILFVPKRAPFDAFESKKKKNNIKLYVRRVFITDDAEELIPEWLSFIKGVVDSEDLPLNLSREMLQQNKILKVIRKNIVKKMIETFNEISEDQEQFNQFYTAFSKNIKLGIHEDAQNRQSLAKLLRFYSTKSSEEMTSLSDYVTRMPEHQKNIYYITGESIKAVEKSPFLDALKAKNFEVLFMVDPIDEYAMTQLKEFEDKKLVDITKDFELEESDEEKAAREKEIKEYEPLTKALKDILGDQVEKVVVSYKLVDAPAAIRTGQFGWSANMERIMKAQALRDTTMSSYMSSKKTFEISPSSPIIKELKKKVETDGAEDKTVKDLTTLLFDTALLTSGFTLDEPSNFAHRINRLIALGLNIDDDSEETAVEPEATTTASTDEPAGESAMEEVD

Sequence of Serine/threonine-protein phosphatase (B9W6M3 whole entry): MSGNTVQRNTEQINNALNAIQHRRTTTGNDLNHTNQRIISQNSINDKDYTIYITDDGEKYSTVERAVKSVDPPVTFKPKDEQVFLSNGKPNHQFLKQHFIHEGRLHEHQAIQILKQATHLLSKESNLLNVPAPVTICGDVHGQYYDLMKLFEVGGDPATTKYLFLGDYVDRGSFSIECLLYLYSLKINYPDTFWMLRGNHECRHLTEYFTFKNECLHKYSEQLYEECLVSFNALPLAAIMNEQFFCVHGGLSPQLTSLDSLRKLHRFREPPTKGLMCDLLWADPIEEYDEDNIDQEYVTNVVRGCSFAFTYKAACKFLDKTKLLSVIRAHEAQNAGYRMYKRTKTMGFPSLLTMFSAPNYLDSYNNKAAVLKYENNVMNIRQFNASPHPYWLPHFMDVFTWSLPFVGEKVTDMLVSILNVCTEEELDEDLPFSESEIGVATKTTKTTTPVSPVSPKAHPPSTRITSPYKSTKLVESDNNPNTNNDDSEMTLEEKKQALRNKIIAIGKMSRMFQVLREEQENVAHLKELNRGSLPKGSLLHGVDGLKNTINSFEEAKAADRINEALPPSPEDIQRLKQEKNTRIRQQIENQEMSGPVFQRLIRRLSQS

IC50 (Hexokinase HKDC1): > 80 µM (inactive) | IC50 (Hexokinase-1): > 80 µM (inactive)
SMILES: O=c1c2ccccc2nc(/C=C/c2cccnc2)n1Cc1ccc(F)cc1

IC50 (Hexokinase HKDC1): 9.9 µM (active) | IC50 (Hexokinase-1): > 80 µM (inactive)
SMILES: Cc1cc(C)c(S(=O)(=O)Nc2cc(SCCC(=O)O)c(O)c3ccccc23)cc1C

SMILES: NC(=O)Cn1cc(/C=N\NS(=O)(=O)c2ccc(Cl)cc2)c2ccccc21
EC50 (HEK293 [1]): > 55.9 µM (inactive) | EC50 (Insulin-degrading enzyme [2]): > 54.7 µM (inactive) | IC50 (HEK293 [3]): > 89.1 µM (inactive) | EC50 (Insulin-degrading enzyme [4]): > 54.7 µM (inactive)

SMILES: N#Cc1cc(C#N)c(N2CCN(c3cccc(Cl)n3)CC2)nc1N
EC50 [5]: 1.47 µM (active) | EC50 [6]: > 180 µM (inactive) | EC50 [7]: > 150 µM (inactive) | EC50 [8]: 23.7 µM (active)
